Reference: PMC7000700, “RyR1-targeted drug discovery pipeline integrating FRET-based high-throughput screening and human myofiber dynamic Ca^2+ assays” (Scientific Reports, 2020)

Columns and labels:
[1] = molecular target: T1, RyR2 (Sus scrofa, UniProt A0A5G2R1W3); experiment: [3H]ryanodine binding to cardiac SR vesicles; assay type: biochemical, porcine; design: RyR1 in skeletal SR membranes, and RyR2 in cardiac SR membranes; from tissue; host or cells: porcine cardiac left ventricle (crude SR vesicles); details: micromolar compound, significant only with CaM at 30 nM Ca2+ and only without CaM at 30 μM Ca2+
T1 sequence (A0A5G2R1W3 20-4900): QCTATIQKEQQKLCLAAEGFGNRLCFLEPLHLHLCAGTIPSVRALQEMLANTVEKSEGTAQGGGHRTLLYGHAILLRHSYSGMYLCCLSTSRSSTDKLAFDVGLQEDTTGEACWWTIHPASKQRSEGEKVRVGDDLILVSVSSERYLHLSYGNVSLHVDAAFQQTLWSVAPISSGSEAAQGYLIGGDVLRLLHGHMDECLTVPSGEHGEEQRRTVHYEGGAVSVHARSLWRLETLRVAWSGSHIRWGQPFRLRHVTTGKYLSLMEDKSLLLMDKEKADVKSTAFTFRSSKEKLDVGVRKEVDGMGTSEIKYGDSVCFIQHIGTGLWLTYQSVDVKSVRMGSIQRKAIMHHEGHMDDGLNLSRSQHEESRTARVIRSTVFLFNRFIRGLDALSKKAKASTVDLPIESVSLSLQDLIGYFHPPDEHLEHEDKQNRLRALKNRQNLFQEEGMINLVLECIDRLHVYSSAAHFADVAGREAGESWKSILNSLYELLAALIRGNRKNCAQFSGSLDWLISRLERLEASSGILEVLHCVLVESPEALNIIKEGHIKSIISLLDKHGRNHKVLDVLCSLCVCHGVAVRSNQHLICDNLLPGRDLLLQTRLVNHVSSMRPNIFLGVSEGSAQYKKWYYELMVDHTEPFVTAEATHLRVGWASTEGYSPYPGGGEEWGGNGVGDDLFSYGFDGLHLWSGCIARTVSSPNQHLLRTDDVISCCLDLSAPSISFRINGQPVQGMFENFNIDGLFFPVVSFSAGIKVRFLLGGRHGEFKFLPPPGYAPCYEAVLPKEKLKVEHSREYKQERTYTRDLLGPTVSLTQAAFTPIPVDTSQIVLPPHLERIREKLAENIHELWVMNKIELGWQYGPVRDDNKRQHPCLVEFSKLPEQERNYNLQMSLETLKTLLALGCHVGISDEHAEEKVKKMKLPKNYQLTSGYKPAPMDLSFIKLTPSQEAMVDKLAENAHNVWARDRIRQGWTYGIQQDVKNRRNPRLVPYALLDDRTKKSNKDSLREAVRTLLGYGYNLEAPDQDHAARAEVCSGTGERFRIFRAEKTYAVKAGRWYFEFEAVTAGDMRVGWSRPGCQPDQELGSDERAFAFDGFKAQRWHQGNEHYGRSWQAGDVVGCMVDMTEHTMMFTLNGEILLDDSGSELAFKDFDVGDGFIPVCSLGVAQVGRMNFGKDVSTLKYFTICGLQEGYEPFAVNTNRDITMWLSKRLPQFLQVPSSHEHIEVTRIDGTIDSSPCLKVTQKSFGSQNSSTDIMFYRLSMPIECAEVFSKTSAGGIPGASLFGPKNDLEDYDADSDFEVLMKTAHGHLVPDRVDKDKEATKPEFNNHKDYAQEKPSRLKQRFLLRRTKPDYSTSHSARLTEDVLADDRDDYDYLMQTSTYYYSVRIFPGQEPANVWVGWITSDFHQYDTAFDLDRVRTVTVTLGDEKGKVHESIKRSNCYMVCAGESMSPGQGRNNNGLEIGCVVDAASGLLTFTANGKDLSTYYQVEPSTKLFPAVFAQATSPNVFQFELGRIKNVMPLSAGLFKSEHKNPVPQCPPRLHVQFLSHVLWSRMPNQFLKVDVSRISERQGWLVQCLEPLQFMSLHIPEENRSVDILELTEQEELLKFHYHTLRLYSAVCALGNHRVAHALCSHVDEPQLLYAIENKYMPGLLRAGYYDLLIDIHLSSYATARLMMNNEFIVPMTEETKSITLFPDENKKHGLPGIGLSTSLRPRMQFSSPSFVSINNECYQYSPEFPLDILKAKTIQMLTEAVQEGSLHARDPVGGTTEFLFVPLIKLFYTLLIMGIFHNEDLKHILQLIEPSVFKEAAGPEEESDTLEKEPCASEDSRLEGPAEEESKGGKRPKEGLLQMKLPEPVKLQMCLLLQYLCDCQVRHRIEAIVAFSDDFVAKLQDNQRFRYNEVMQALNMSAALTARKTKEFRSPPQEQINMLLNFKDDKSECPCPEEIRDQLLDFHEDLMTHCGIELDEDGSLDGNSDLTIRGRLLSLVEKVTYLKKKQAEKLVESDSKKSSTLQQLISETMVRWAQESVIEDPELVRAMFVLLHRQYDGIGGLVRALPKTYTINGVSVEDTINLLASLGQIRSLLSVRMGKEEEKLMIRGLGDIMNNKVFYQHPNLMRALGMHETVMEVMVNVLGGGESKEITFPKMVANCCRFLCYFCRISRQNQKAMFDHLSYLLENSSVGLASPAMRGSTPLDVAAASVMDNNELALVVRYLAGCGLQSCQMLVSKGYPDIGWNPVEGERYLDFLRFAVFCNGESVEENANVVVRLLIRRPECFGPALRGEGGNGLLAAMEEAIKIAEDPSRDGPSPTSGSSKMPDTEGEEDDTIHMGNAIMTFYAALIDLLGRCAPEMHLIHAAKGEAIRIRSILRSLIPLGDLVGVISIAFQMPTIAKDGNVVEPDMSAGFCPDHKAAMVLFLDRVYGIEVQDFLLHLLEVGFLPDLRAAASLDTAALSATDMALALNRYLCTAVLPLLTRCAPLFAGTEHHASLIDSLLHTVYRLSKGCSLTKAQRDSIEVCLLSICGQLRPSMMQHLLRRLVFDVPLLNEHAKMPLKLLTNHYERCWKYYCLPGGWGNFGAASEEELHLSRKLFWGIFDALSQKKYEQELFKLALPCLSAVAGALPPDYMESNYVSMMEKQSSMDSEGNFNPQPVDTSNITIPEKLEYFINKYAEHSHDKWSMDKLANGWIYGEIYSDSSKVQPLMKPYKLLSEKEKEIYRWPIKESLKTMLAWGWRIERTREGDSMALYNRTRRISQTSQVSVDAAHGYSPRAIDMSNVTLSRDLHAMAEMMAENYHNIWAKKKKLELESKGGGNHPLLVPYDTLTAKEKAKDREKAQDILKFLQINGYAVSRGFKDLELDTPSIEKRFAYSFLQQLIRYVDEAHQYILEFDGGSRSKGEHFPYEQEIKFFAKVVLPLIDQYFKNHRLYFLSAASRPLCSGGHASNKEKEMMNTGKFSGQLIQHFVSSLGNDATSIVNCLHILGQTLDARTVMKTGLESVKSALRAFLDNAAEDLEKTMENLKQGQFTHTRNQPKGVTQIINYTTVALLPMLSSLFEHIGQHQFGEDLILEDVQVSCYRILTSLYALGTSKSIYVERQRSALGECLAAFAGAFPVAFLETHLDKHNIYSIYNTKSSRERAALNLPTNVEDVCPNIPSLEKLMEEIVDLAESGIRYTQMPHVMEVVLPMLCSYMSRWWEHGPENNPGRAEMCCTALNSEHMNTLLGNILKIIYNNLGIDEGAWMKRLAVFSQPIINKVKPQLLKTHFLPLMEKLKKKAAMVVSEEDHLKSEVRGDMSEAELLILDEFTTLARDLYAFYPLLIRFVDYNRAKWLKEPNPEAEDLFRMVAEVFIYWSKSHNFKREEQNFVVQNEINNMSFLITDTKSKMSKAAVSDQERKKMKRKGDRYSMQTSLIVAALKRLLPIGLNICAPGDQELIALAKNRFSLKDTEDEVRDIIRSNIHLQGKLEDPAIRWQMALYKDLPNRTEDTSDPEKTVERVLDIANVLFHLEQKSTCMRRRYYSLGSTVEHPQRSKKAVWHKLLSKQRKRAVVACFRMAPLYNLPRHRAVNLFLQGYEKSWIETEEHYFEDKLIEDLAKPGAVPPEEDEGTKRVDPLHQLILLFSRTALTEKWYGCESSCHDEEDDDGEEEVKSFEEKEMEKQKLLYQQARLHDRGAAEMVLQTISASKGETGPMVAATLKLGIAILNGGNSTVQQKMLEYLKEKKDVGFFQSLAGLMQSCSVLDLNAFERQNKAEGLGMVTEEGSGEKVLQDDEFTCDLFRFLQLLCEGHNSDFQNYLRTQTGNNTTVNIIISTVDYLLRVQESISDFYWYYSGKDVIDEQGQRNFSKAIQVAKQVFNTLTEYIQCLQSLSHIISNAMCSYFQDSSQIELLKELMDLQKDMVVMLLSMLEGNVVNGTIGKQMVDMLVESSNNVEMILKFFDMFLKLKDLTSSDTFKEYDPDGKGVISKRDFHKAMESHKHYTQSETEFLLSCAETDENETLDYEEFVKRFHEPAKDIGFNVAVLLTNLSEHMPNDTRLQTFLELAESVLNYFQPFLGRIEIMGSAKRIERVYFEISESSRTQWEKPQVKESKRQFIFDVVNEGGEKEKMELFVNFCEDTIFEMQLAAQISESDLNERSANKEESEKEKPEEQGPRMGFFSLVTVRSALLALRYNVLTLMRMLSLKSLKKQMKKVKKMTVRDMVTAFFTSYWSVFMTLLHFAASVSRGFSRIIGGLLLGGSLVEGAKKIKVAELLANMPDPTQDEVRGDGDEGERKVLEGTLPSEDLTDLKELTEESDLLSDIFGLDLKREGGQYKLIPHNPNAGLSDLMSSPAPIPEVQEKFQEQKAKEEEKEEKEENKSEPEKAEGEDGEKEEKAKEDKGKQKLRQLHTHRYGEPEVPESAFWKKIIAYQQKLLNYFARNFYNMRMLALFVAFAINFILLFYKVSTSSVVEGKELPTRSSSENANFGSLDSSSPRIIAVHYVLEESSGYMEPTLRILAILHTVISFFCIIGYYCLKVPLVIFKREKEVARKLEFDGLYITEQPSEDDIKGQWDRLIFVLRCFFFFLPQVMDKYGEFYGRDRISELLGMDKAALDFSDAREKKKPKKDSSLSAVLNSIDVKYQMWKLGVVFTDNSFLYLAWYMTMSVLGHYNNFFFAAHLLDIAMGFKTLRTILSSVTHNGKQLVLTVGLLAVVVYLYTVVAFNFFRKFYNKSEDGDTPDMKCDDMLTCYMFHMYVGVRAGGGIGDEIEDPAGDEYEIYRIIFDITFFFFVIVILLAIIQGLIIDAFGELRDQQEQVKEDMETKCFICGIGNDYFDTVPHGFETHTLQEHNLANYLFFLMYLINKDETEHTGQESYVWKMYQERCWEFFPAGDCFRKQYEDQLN
Experimental: To evaluate the functional impact of compounds identified through our FRET-based screen, we first used [^3H]ryanodine binding assays. The level of [^3H]ryanodine binding to RyRs in SR membranes is a well-established index of the RyR channel activity. Given the role of CaM binding in our FRET readout, we investigated whether CaM influences the functional effect of the Hit compounds by carrying out [^3H]ryanodine binding assays in the absence and presence of CaM (300 nM).
Crude sarcoplasmic reticulum (CSR) vesicles were isolated from porcine longissimus dorsi muscle and porcine cardiac left ventricle tissue by differential centrifugation of homogenized tissue. […] Immediately prior to the fluorescence or [^3H]ryanodine binding studies described below, the SR vesicles were stripped of residual endogenous CaM by incubation with a peptide derived from the CaM binding domain of myosin light chain kinase, followed by sedimentation.
In 96-well plates, HSR vesicles (1 mg/ml) and cardiac CSR vesicles (3 mg/mL) were pre-incubated with 0.02% DMSO or Hit compound, with or without 300 nM CaM, for 30 min at 22 °C in a solution containing 150 mM KCl, 5 mM GSSG, 1 µg/mL Aprotinin/Leupeptin, 1 mM EGTA, and 65 µM or 1.02 mM CaCl2 (as determined by MaxChelator to yield 30 nM or 30 μM of free Ca^2+, respectively), 0.1 mg/mL BSA and 20 mM K-PIPES (pH 7.0). […]

[2] = molecular target: RyR1 (Sus scrofa, UniProt P16960); experiment: F-FKBP binding to RyR1 by co-sedimentation with skeletal SR membranes; design: using co-sedimentation with pig skeletal and cardiac SR membranes; from tissue; host or cells: pig skeletal muscle (heavy SR membranes); species or system pig; details: RyR1, 10 μM Hit, 30 nM Ca2+, 5 mM GSSG or GSH
Experimental: The Hit-induced effect on FRET between D-FKBP and A-CaM most likely results from one or the combination of factors, including a shift in CaM and/or FKBP12.6 binding, and/or structure of the RyR complex that shifts the D-A distance. Under the same assay conditions as in the primary screen, we assessed the effect of 10 μM Hit on fluorescent FKBP12.6 (F-FKBP) binding to RyRs, using co-sedimentation with pig skeletal and cardiac SR membranes.
Supplementary Fig. 3 Effect of HTS Hits on F-FKBP binding to a) RyR1 in skeletal HSR membranes, and b) RyR2
in cardiac CSR membranes at 30 nM Ca2+ in the presence of 5 mM GSSG or GSH. Results are represented as individual
data points and means ± SEM, n = 4-5. *P < 0.05 by 2-sided Student’s unpaired t-test. […]

[3] = molecular target: T1, RyR2; experiment: FLT-FRET between D-FKBP and A-CaM bound to RyR2 in cardiac SR membranes (dose-response); assay type: binding, porcine; design: RyR1 in skeletal SR membranes, and RyR2 in cardiac SR membranes; from tissue; host or cells: porcine cardiac left ventricle (crude SR vesicles); details: RyR2 samples, 30 nM Ca2+
Experimental: Necessary counter-screens to our pathological RyR1 conditions include evaluating compound effects in healthy conditions and on the cardiac isoform, RyR2. Using the same FRET assay as in HTS, we tested the dose response of key Hits from this screen and the previously HTS-identified RyR1 inhibitor, chloroxine, on healthy (5 mM GSH) and pathological (5 mM GSSG) conditions for both RyR1 in skeletal SR membranes, and RyR2 in cardiac SR membranes.
Skeletal HSR and cardiac CSR (0.4 mg/ml) membranes were independently pre-incubated with 60 nM D-FKBP, for 90 min, at 37 °C, in a solution containing 150 mM KCl, 5 mM GSH, 0.1 mg/mL BSA, 1 µg/mL Aprotinin/Leupeptin, 1 mM DTT and 20 mM PIPES (pH 7.0). To remove unbound D-FKBP, the SR membranes were spun down at 110,000 × g for 20 min, and then resuspended to 1 mg/mL (skeletal HSR) and 2 mg/mL (cardiac CSR) in binding buffer consisting of 150 mM KCl, 5 mM GSSG, 0.1 mg/mL BSA, 1μg/mL Aprotinin/Leupeptin and 20 mM PIPES, pH 7.0. These samples were then incubated with indicated [A-CaM] for 30 min at 22 °C in binding buffer containing 0.065 mM CaCl2 to give 30 nM free Ca^2+ in the presence of 1 mM EGTA (calculated by MaxChelator). This labeled SR sample was applied to the assay plates in 5 μL aliquots using a Multidrop™ Combi reagent dispenser (Thermo Scientific) with a standard-tube. An additional set of the assay plates were loaded with skeletal HSR or cardiac CSR labeled with only D-FKBP (no added A-CaM).
FLT measurements were conducted in a top-read FLT-PR designed and built by Fluorescence Innovations, Inc[33]. AF488 donor fluorescence was excited with a 473-nm microchip laser from Concepts Research Corporation (Belgium, WI), and emission was acquired with 490-nm long-pass and 517/20-nm band-pass filters (Semrock, Rochester, NY).
FLT waveforms for each well were fit based on a one-exponential decay function using least-squares minimization global-analysis software (Fluorescence Innovations, Inc.), as previously described[19],[33]. FRET efficiency (E) was determined as the fractional decrease of donor FLT (τD), due to the presence of acceptor fluorophore (τDA), using the following equation:1 E=1−τDA/τD,

Row | Effect on [3H]ryanodine binding [1] | Decrease of F-FKBP binding [2] | Effect on FRET [3] | Compound
1 | only inhibits | did not alter | – | O=c1c(O)c(-c2cc(O)c(O)c(O)c2)oc2cc(O)cc(O)c12 [myricetin]
2 | – | – | did not alter FRET | Oc1c(Cl)cc(Cl)c2cccnc12 [chloroxine]
